# Values joined by “and” are separate entries in the source; they are usually repeats but may differ in a detail not shown here. Identical values can stand only once.
# Tests used:
# Assay in all cases: ≥ marks a high value that may be exact or a test limit, other limits are often not marked, values filed in µg/mL are converted to µM
# [1] = test system: Batrachochytrium dendrobatidis
# [2] = test system: Candida albicans ATCC 90028
# [3] = test system: Escherichia coli ATCC 25922
# [4] = test system: Staphylococcus aureus NCTC 8325
# Acinetobacter baumannii = test system: Acinetobacter baumannii
# Escherichia coli K88 = test system: Escherichia coli K88
# Escherichia coli K99 = test system: Escherichia coli K99
# Escherichia coli UB1005 = test system: Escherichia coli UB1005
# Escherichia coli = test system: Escherichia coli
# Klebsiella pneumoniae = test system: Klebsiella pneumoniae
# [5] = test system: Pseudomonas aeruginosa ATCC 27853
# [6] = test system: Pseudomonas aeruginosa CICC 21625
# [7] = test system: Pseudomonas aeruginosa CICC 21630
# [8] = test system: Pseudomonas aeruginosa PAO1
# Pseudomonas aeruginosa = test system: Pseudomonas aeruginosa
# [9] = test system: Salmonella enterica subsp. enterica serovar Pullorum C79-13
# [10] = test system: Salmonella enterica subsp. enterica serovar Typhimurium ATCC 14028
# [11] = test system: Salmonella enterica subsp. enterica serovar Typhimurium C77-31
# [12] = test system: Acinetobacter baumannii MTCC 9829
# [13] = test system: Alcaligenes faecalis MTCC 1937
# [14] = test system: Alkalihalobacillus alcalophilus MTCC 860
# [15] = test system: Bordetella bronchiseptica MTCC 6837
# [16] = test system: Citrobacter freundii MTCC 1658
# [17] = test system: Citrobacter koseri MTCC 1657
# [18] = test system: Corynebacterium glutamicum MTCC 2679
# [19] = test system: Enterococcus faecalis MTCC 439
# [20] = test system: Escherichia coli K12 MG1655
# [21] = test system: Haemophilus influenzae MTCC 621
# [22] = test system: Klebsiella aerogenes MTCC 111
# [23] = test system: Klebsiella oxytoca MTCC 2275
# [24] = test system: Klebsiella pneumoniae MTCC 7407
# [25] = test system: Pluralibacter gergoviae MTCC 3826
# [26] = test system: Proteus mirabilis MTCC 3158
# [27] = test system: Proteus vulgaris MTCC 1771
# [28] = test system: Pseudomonas aeruginosa MTCC 3542
# [29] = test system: Salmonella enterica MTCC 9844
# [30] = test system: Shigella boydii MTCC 11947
# [31] = test system: Shigella flexneri MTCC 1457
# [32] = test system: Staphylococcus aureus MTCC 3160
# [33] = test system: Staphylococcus haemolyticus MTCC 3383
# [34] = test system: Stenotrophomonas maltophilia MTCC 1890
# [35] = test system: Vibrio cholerae MTCC 3904
compound,measurement,setting,value
CC[C@H](C)[C@@H]1NC(=O)[C@H](CCCCN)NC(=O)[C@@H](NC(=O)[C@H](CCCCN)NC(=O)[C@H](CC(C)C)NC(=O)[C@H](CCCCN)NC(=O)[C@H](CC(=O)O)NC(=O)[C@H](CC(C)C)NC(=O)[C@H](CCSC)NC(=O)[C@H](Cc2cnc[nH]2)NC(=O)CNC(=O)[C@H](C)NC(=O)[C@H](CC(C)C)NC(=O)[C@H](CC(N)=O)NC(=O)[C@H](CCCCN)NC(=O)[C@H](C)NC(=O)[C@@H](NC(=O)[C@H](CC(N)=O)NC(=O)[C@H](CCCCN)NC(=O)[C@@H](NC(=O)[C@@H](NC(=O)[C@H](CC(=O)O)NC(=O)[C@H](CCSC)NC(=O)[C@@H](N)CC(C)C)[C@@H](C)O)C(C)C)C(C)C)CSSC[C@@H](C(=O)O)NC(=O)CNC(=O)[C@H]([C@@H](C)O)NC1=O [LMDTVKNVAKNLAGHMLDKLKCKITGC],MIC,[1],≥ 100 µM
same,MIC,[2],≥ 67 µM
same,MIC,[3],13 µM
same,MIC,[4],≥ 50 µM
CC[C@H](C)[C@H](N)C(=O)N[C@@H](CCCN=C(N)N)C(=O)N1CCC[C@H]1C(=O)N[C@H](C(=O)N[C@H](C(=O)N[C@@H](CCCN=C(N)N)C(=O)N1CCC[C@H]1C(=O)N[C@H](C(=O)N[C@H](C(=O)N[C@@H](CCCN=C(N)N)C(=O)N1CCC[C@H]1C(=O)N[C@H](C(=O)N[C@H](C(=O)N[C@@H](CCCN=C(N)N)C(=O)N1CCC[C@H]1C(=O)N[C@H](C(=O)N[C@H](C(=O)N[C@@H](CCCN=C(N)N)C(=O)N1CCC[C@H]1C(=O)N[C@H](C(=O)N[C@H](C(=O)N[C@@H](CCCN=C(N)N)C(=O)N1CCC[C@H]1C(=O)N[C@H](C(N)=O)[C@@H](C)CC)[C@@H](C)CC)[C@@H](C)CC)[C@@H](C)CC)[C@@H](C)CC)[C@@H](C)CC)[C@@H](C)CC)[C@@H](C)CC)[C@@H](C)CC)[C@@H](C)CC)[C@@H](C)CC [IRPIIRPIIRPIIRPIIRPIIRPI],MIC,Acinetobacter baumannii,4 µM
same,MIC,[3],2 µM
same,MIC,Escherichia coli K88,1 µM
same,MIC,Escherichia coli K99,2 µM
same,MIC,Escherichia coli UB1005,2 µM
same,MIC,Escherichia coli,2 µM
same,MIC,Klebsiella pneumoniae,16 µM
same,MIC,[5],8 µM
same,MIC,[6],≥ 64 µM
same,MIC,[7],≥ 64 µM
same,MIC,[8],8 µM
same,MIC,Pseudomonas aeruginosa,> 64 µM
same,MIC,[9],4 µM
same,MIC,[10],4 µM
same,MIC,[11],4 µM
CC(C)C[C@H](NC(=O)[C@@H]1CCCN1C(=O)[C@H](CCCCN)NC(=O)[C@H](CC(C)C)NC(=O)[C@H](CC(C)C)NC(=O)[C@@H]1CCCN1C(=O)[C@H](CCCCN)NC(=O)[C@H](CC(C)C)NC(=O)[C@H](CC(C)C)NC(=O)[C@@H]1CCCN1C(=O)[C@H](CCCCN)NC(=O)[C@H](CC(C)C)NC(=O)[C@H](CC(C)C)NC(=O)[C@@H]1CCCN1C(=O)[C@H](CCCCN)NC(=O)[C@H](CC(C)C)NC(=O)[C@H](CC(C)C)NC(=O)[C@@H]1CCCN1C(=O)[C@H](CCCCN)NC(=O)[C@@H](N)CC(C)C)C(N)=O [LKPLLKPLLKPLLKPLLKPL],MIC,Acinetobacter baumannii,4 µM
same,MIC,[3],2 µM
same,MIC,Escherichia coli K88,2 µM
same,MIC,Escherichia coli K99,2 µM
same,MIC,Escherichia coli UB1005,2 µM
same,MIC,Escherichia coli,4 µM
same,MIC,Klebsiella pneumoniae,32 µM
same,MIC,[5],16 µM
same,MIC,[6],≥ 64 µM
same,MIC,[7],≥ 32 µM
same,MIC,[8],> 64 µM
same,MIC,Pseudomonas aeruginosa,32 µM
same,MIC,[9],4 µM
same,MIC,[10],8 µM
same,MIC,[11],16 µM
CC[C@H](C)[C@H](NC(=O)[C@H](CC(C)C)NC(=O)[C@@H]1CCCN1C(=O)[C@H](CC(C)C)NC(=O)[C@@H](N)Cc1ccccc1)C(=O)NCC(=O)N[C@@H](CCCCN)C(=O)N[C@H](C(=O)N[C@@H](CC(C)C)C(=O)NCC(=O)N[C@H](C(=O)N[C@H](C(=O)N[C@@H](CC(C)C)C(N)=O)[C@@H](C)CC)[C@@H](C)O)[C@@H](C)CC [FLPLIGKILGTIL],MIC,[1],≥ 50 µM and 25 µM
same,MIC,[2],≥ 150 µM
same,MIC,[3],140 µM
same,MIC,[4],5 µM
CC(C)C[C@H](NC(=O)[C@H](CCCCN)NC(=O)CNC(=O)[C@H](C)NC(=O)[C@H](CCCN=C(N)N)NC(=O)[C@H](CO)NC(=O)[C@@H](N)CCC(=O)O)C(=O)N[C@@H](C)C(=O)N[C@@H](C)C(=O)N[C@@H](CCCCN)C(=O)N[C@@H](C)C(=O)N[C@@H](C)C(=O)N[C@@H](Cc1ccccc1)C(=O)N[C@@H](CCCCN)C(=O)N[C@@H](C)C(=O)N[C@@H](C)C(=O)N[C@@H](CCCCN)C(=O)N[C@@H](CCCN=C(N)N)C(=O)O [ESRAGKLAAKAAFKAAKR],MIC,[12],≥ 68.3 µM
same,MIC,[13],≥ 68.3 µM
same,MIC,[14],≥ 68.3 µM
same,MIC,[15],≥ 68.3 µM
same,MIC,[16],≥ 68.3 µM
same,MIC,[17],≥ 68.3 µM
same,MIC,[18],≥ 68.3 µM
same,MIC,[19],≥ 68.3 µM
same,MIC,[20],≥ 68.3 µM
same,MIC,[21],≥ 68.3 µM
same,MIC,[22],≥ 68.3 µM
same,MIC,[23],≥ 68.3 µM
same,MIC,[24],≥ 68.3 µM
same,MIC,[25],≥ 68.3 µM
same,MIC,[26],≥ 68.3 µM
same,MIC,[27],≥ 68.3 µM
same,MIC,[28],≥ 68.3 µM
same,MIC,[29],≥ 68.3 µM
same,MIC,[10],> 68.3 µM
same,MIC,[30],≥ 68.3 µM
same,MIC,[31],≥ 68.3 µM
same,MIC,[32],≥ 68.3 µM
same,MIC,[33],≥ 68.3 µM
same,MIC,[34],≥ 68.3 µM
same,MIC,[35],≥ 68.3 µM

# Reference: DBAASP
